Source: patent US11046699B2, “Pyrazolo-pyrimidin-amino-cycloalkyl compounds and their therapeutic uses” (RAPT THERAPEUTICS, INC., priority 2018, dated 2021)

Molecular target: GCN2 (Homo sapiens, UniProt Q9P2K8)
Assay: GCN2 enzymatic endpoint assay: phosphorylation of GFP-eIF2α measured by TR-FRET (Lanthascreen)
Type: biochemical
Details: GCN2 biochemical IC50; 4 nM GCN2, 2 μM ATP, 80 nM GFP-eIF2α, 90 min RT; read-out: GCN2 activity
Method in brief: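 Kinase activity is measured as phosphorylation of GFP-labelled eIF2α (80 nM) with ATP at 2 μM. Incubation runs 90 minutes at room temperature before EDTA quench and terbium-antibody detection.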

GCN2, sequence (Q9P2K8 whole entry): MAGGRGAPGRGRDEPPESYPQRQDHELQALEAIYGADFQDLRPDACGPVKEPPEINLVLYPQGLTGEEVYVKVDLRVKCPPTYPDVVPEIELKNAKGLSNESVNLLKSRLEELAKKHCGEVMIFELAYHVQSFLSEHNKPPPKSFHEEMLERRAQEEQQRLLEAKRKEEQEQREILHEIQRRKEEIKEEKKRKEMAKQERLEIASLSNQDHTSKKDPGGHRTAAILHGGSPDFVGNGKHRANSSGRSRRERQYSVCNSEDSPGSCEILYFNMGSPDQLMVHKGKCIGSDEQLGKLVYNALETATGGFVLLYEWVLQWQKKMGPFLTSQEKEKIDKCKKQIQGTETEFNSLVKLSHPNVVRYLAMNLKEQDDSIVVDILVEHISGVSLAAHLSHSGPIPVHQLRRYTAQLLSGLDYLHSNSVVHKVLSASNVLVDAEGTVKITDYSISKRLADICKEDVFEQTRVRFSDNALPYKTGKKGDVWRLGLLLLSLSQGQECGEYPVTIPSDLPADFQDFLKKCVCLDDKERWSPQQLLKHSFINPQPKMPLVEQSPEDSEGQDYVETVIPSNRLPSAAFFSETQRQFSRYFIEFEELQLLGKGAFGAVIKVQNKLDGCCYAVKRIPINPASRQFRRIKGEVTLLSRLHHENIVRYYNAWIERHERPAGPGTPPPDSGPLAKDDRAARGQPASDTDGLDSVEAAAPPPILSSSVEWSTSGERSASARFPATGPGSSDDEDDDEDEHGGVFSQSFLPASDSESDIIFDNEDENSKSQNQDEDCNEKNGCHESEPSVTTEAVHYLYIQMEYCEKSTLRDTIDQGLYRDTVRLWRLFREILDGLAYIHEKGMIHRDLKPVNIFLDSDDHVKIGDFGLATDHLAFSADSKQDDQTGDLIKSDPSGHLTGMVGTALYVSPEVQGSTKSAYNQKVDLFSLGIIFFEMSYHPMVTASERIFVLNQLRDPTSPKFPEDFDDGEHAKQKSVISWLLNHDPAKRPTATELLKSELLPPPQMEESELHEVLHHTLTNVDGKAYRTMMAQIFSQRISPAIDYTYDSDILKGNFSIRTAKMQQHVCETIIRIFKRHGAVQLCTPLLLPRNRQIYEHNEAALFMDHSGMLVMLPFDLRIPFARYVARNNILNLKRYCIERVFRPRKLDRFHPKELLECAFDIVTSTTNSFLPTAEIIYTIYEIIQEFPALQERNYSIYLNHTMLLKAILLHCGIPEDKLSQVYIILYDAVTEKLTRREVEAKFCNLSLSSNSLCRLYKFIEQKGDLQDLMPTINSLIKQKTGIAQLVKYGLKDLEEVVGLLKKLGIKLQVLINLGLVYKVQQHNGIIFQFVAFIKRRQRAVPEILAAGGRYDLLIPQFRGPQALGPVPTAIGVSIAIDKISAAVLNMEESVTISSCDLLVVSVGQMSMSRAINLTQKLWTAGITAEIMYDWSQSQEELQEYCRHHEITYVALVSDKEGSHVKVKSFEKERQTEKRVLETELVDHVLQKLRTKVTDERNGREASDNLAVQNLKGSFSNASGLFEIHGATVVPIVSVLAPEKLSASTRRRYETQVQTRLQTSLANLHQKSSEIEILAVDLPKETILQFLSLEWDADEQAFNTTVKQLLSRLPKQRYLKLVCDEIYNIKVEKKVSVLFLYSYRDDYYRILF

IC50 [µM] | SMILES
< 0.025 | CNC(=O)[C@]1(C)CC[C@@H](Nc2ncc3c(Br)nn(-c4cc(C#N)cc(OCC5(F)CNC5)c4)c3n2)C1 [Example 36, (1R,3R)-3-((3-bromo-1-(3-cyano-5-((3-fluoroazetidin-3-yl)methoxy)phenyl)-1H-pyrazolo[3,4-d]pyrimidin-6-yl)amino)-N,1-dimethylcyclopentane-1-carboxamide; 2,2,2-trifluoroacetic acid]
< 0.025 | COCCNC(=O)[C@@H]1CC[C@@H](Nc2ncc3c(Br)nn(-c4ccc5ncccc5c4)c3n2)C1 [Example 1, (1R,3R)-3-((3-bromo-1-(quinolin-6-yl)-1H-pyrazolo[3,4-d]pyrimidin-6-yl)amino)-N-(2-methoxyethyl)cyclopentane-1-carboxamide]
0.025 to 0.2 | COCCO[C@H]1C[C@H](Nc2ncc3c(Br)nn(-c4ccc5ncccc5c4)c3n2)C1 [Example 4, 3-bromo-N-((1r,3r)-3-(2-methoxyethoxy)cyclobutyl)-1-(quinolin-6-yl)-1H-pyrazolo[3,4-d]pyrimidin-6-amine]

Same assay, conditions: tested as described in Example 77; compound and/or hydrochloride, dihydrochloride or trifluoroacetic acid salt; read-out: IC 50 Activity

IC50 [µM] | SMILES
0.025 to 0.2 | CN1CCN(C(=O)[C@@H]2CC[C@@H](Nc3ncc4c(Br)nn(-c5cc(C#N)c6ncccc6c5)c4n3)C2)CC1=O [6-(3-bromo-6-(((1R,3R)-3-(4-methyl-3-oxo-piperazine-1-carbonyl)cyclopentyl)amino)-1H-pyrazolo[3,4-d]pyrimidin-1-yl)quinoline-8-carbonitrile]
0.2 to 0.5 | O=S(=O)(NC1CCOCC1)[C@@H]1CC[C@@H](Nc2ncc3c(Br)nn(-c4ccc5ncccc5c4)c3n2)C1 [(1R,3R)-3-((3-bromo-1-(quinolin-6-yl)-1H-pyrazolo[3,4-d]pyrimidin-6-yl)amino)-N-(tetrahydro-2H-pyran-4-yl)cyclopentane-1-sulfonamide]
< 0.025 | O=C(N[C@@H]1CCOC1)[C@@H]1CC[C@@H](Nc2ncc3c(Br)nn(-c4cc(Cl)c5ncccc5c4)c3n2)C1 [(1R,3R)-3-((3-bromo-1-(8-chloroquinolin-6-yl)-1H-pyrazolo[3,4-d]pyrimidin-6-yl)amino)-N-((R)-tetrahydrofuran-3-yl)cyclopentane-1-carboxamide]
0.2 to 0.5 | C[C@]1(C(=O)O)C[C@H](Nc2ncc3c(Br)nn(-c4ccc5ncccc5c4)c3n2)C1
0.2 to 0.5 | COCCNC(=O)[C@@H]1CC[C@@H](Nc2ncc3c(Br)nn(-c4ccc(-c5ccn[nH]5)cc4)c3n2)C1 [(1R,3R)-3-((1-(4-(1H-pyrazol-5-yl)phenyl)-3-bromo-1H-pyrazolo[3,4-d]pyrimidin-6-yl)amino)-N-(2-methoxyethyl)cyclopentane-1-carboxamide]
0.025 to 0.2 | CNC(=O)[C@]1(C)CC[C@@H](Nc2ncc3c(Br)nn(-c4ccc5ncc(CNCCC#N)cc5c4)c3n2)C1 [(1R,3R)-3-[[3-bromo-1-[3-[(2-cyanoethyl-amino)methyl]-6-quinolyl]pyrazolo[3,4-d]pyrimidin-6-yl]amino]-N,1-dimethyl-cyclo-pentanecarboxamide]
0.025 to 0.2 | O=C([C@@H]1CC[C@@H](Nc2ncc3c(Br)nn(-c4ccc5ncccc5c4)c3n2)C1)N1C[C@H]2C[C@@H]1CO2 [((1R,4R)-2-oxa-5-azabicyclo[2.2.1]heptan-5-yl) ((1R,3R)-3-((3-bromo-1-(quinolin-6-yl)-1H-pyrazolo[3,4-d]pyrimidin-6-yl)amino)cyclo-pentyl)methanone]
< 0.025 | C[C@@H]1CNC[C@H](C)N1C(=O)[C@@H]1CC[C@@H](Nc2ncc3c(Br)nn(-c4ccc5ncccc5c4)c3n2)C1 [((1R,3R)-3-((3-bromo-1-(quinolin-6-yl)-1H-pyrazolo[3,4-d]pyrimidin-6-yl)amino)cyclo-pentyl)((2R,6S)-2,6-dimethylpiperazin-1-yl)methanone]
< 0.025 | CNC(=O)[C@]1(C)CC[C@@H](Nc2ncc3c(Br)nn(-c4cc(/C=C/S(C)(=O)=O)c5ncccc5c4)c3n2)C1 [(1R,3R)-3-[[3-bromo-1-[8-[(E)-2-methyl-sulfonylvinyl]-6-quinolyl]pyrazolo[3,4-d]pyrimidin-6-yl]amino]-N,1-dimethyl-cyclopentanecarboxamide]
0.025 to 0.2 | CNC(=O)[C@]1(C)CC[C@@H](Nc2ncc3c(Br)nn(-c4cc(COC)c5ncccc5c4)c3n2)C1 [(1R,3R)-3-[[3-bromo-1-[8-(methoxymethyl)-6-quinolyl]pyrazolo[3,4-d]pyrimidin-6-yl]amino]-N,1-dimethyl-cyclopentane-carboxamide]
0.025 to 0.2 | CCNC(=O)[C@@H]1CC[C@@H](Nc2ncc3c(Br)nn(-c4cc(F)c5ncccc5c4)c3n2)C1 [(1R,3R)-3-[[3-bromo-1-(8-fluoro-6-quinolyl)pyrazolo[3,4-d]pyrimidin-6-yl]amino]-N-ethyl-cyclopentanecarboxamide]
0.025 to 0.2 | O=C([C@@H]1CC[C@@H](Nc2ncc3c(Br)nn(-c4ccc5ncccc5c4)c3n2)C1)N1CC2CCC(C1)O2 [(8-oxa-3-azabicyclo[3.2.1]octan-3-yl)((1R,3R)-3-((3-bromo-1-(quinolin-6-yl)-1H-pyrazolo [3,4-d]pyrimidin-6-yl)amino)cyclopentyl) methanone]
0.025 to 0.2 | C[C@]1(C(=O)N[C@@H]2CCOC2)C[C@H](Nc2ncc3c(Br)nn(-c4ccc5ncccc5c4)c3n2)C1
< 0.025 | CNC(=O)[C@]1(C)CC[C@@H](Nc2ncc3c(Br)nn(-c4cc(CO)c5ncccc5c4)c3n2)C1 [(1R,3R)-3-[[3-bromo-1-[8-(hydroxy-methyl)-6-quinolyl]pyrazolo[3,4-d]pyrimidin-6-yl]amino]-N,1-dimethyl-cyclopentanecarboxamide]
< 0.025 | CN=S(C)(=O)CCNC(=O)[C@@H]1CC[C@@H](Nc2ncc3c(Br)nn(-c4cc(F)c5ncccc5c4)c3n2)C1 (stereo partly drawn) [(1R,3R)-3-((3-bromo-1-(8-fluoroquinolin-6-yl)-1H-pyrazolo[3,4-d]pyrimidin-6-yl)amino)-N-(2-(N,S-dimethylsulfonimidoyl)ethyl)cyclopentane-1-carboxamide]
0.025 to 0.2 | CC1(C(=O)O)CN(C(=O)[C@@H]2CC[C@@H](Nc3ncc4c(Br)nn(-c5cc(F)c6ncccc6c5)c4n3)C2)C1 [1-((1R,3R)-3-((3-bromo-1-(8-fluoroquinolin-6-yl)-1H-pyrazolo[3,4-d]pyrimidin-6-yl)amino)cyclopentane-1-carbonyl)-3-methylazetidine-3-carboxylic acid]

More lines, now with the values behind:

SMILES | IC50 [µM]
CNC(=O)[C@]1(C)CC[C@@H](Nc2ncc3c(Br)nn(-c4ccc5c(c4)SCC(=O)N5C)c3n2)C1 [(1R,3R)-3-[[3-bromo-1-(4-methyl-3-oxo-1,4-benzothiazin-7-yl)pyrazolo[3,4-d]pyrimidin-6-yl]amino]-N,1-dimethyl-cyclopentanecarboxamide] | 0.025 to 0.2
CNC(=O)[C@]1(C)CC[C@@H](Nc2ncc3c(Br)nn(-c4ccc5nc(N)ncc5c4)c3n2)C1 | 0.025 to 0.2
Cc1nnc(-c2ccc(-n3nc(Br)c4cnc(N[C@@H]5CC[C@@H](NC(=O)C6CNC6)C5)nc43)cc2)s1 | 0.025 to 0.2
CNC(=O)[C@]1(C)CC[C@@H](Nc2ncc3c(Br)nn(-c4ccc(-c5nnc(C(C)C)o5)cc4)c3n2)C1 [(1R,3R)-3-[[3-bromo-1-[4-(5-isopropyl-1,3,4-oxadiazol-2-yl)phenyl]pyrazolo[3,4-d]pyrimidin-6-yl]amino]-N,1-dimethyl-cyclopentanecarboxamide] | 0.025 to 0.2
CNC(=O)[C@]1(C)CC[C@@H](Nc2ncc3c(Br)nn(-c4ccc(-c5ncco5)c(NC(=O)C5CCNCC5)c4)c3n2)C1 [N-[5-[3-bromo-6-[[(1R,3R)-3-methyl-3-(methylcarbamoyl)cyclopentyl]amino]pyrazolo[3,4-d]pyrimidin-1-yl]-2-oxazol-2-yl-phenyl]piperidine-4-carboxamide] | < 0.025
CNC(=O)[C@]1(C)CC[C@@H](Nc2ncc3c(Br)nn(-c4ccc5nncn5c4)c3n2)C1 [(1R,3R)-3-[[3-bromo-1-([1,2,4]triazolo [4,3-a]pyridin-6-yl)pyrazolo[3,4-d]pyrimidin-6-yl]amino]-N,1-dimethyl-cyclopentanecarboxamide] | 0.025 to 0.2
CNC(=O)[C@]1(C)CC[C@@H](Nc2ncc3c(Br)nn(-c4ccc(-c5nnc(C)s5)c(CCCN)c4)c3n2)C1 [(1R,3R)-3-[[1-[3-(3-aminopropyl)-4-(5-methyl-1,3,4-thiadiazol-2-yl)phenyl]-3-bromopyrazolo[3,4-d]pyrimidin-6-yl]amino]-N,1-dimethyl-cyclopentanecarboxamide] | 0.025 to 0.2
CNC(=O)[C@]1(C)CC[C@@H](Nc2ncc3c(Br)nn(-c4ccc5c(c4)CCC(=O)N5CCO)c3n2)C1 [(1R,3R)-3-[[3-bromo-1-[1-(2-hydroxy-ethyl)-2-oxo-3,4-dihydroquinolin-6-yl]pyrazolo[3,4-d]pyrimidin-6-yl]amino]-N,1-dimethyl-cyclopentanecarboxamide] | 0.025 to 0.2
CNC(=O)[C@]1(CO)CC[C@@H](Nc2ncc3c(Br)nn(-c4ccc(-c5nnc(C)s5)cc4)c3n2)C1 [(1R,3R)-3-[[3-bromo-1-[4-(5-methyl-1,3,4-thiadiazol-2-yl)phenyl]pyrazolo [3,4-d]pyrimidin-6-yl]amino]-1-(hydroxymethyl)-N-methyl-cyclo-pentanecarboxamide] | 0.025 to 0.2
CNC(=O)[C@]1(C(C)C)CC[C@@H](Nc2ncc3c(Br)nn(-c4ccc(-c5nnc(C)s5)c(CCC#N)c4)c3n2)C1 [(1R,3R)-3-[[3-bromo-1-[3-(2-cyanoethyl)-4-(5-methyl-1,3,4-thiadiazol-2-yl)phenyl]pyrazolo[3,4-d]pyrimidin-6-yl]amino]-1-isopropyl-N-methyl-cyclopentane-carboxamide] | 0.025 to 0.2
Cc1nnc(-c2ccc(-n3nc(Br)c4cnc(N[C@@H]5CC[C@@](C)(C(=O)N6CCNC(=O)C6)C5)nc43)cc2)o1 [4-[(1R,3R)-3-[[3-bromo-1-[4-(5-methyl-1,3,4-oxadiazol-2-yl)phenyl]pyrazolo [3,4-d]pyrimidin-6-yl]amino]-1-methyl-cyclopentanecarbonyl]piperazin-2-one] | 0.025 to 0.2
CNC(=O)[C@]1(C)CC[C@@H](Nc2ncc3c(I)nn(-c4ccc(-c5nnc(C)o5)cc4)c3n2)C1 [(1R,3R)-3-[[3-iodo-1-[4-(5-methyl-1,3,4-oxadiazol-2-yl)phenyl]pyrazolo[3,4-d]pyrimidin-6-yl]amino]-N,1-dimethyl-cyclopentanecarboxamide] | < 0.025
